The values that follow come from ChEMBL document CHEMBL1201862, “PubChem BioAssay data set” (2004).

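Five concentrations, 48 hours, 96-well plates. GI50 marks 50% less growth.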 Active and inactive are the calls of the source. Rule as the data show it: active = GI50 up to about 1.1 µM and inactive = higher.

Holding throughout (assay): inhibition of tumour cell growth, NCI panel, 48 h
Test [1] concerns 786-0.
Test [2] relates to COLO 205.
Test [3] concerns DMS-114.
Test [4] concerns HCT-15.
Test [5] deals with HL-60.
Test [6] relates to K562.
Test [7] has as its system LXFL 529.
The subject of test [8] is NCI-H460.
The test system of test [9] is OVCAR-4.
The subject of test [10] is SF-295.
In test [11] the test system is SF-539.
For test [12], the system named is SK-MEL-2.
Test [13] relates to TK-10.
Test [14] deals with UO-31.
Test [15] relates to XF498.

With `CCN1C(=O)N(C)C(O)c2c1nc1ccccn1c2=O` (stereo unspecified), the GI50 in test [1] is 28.5 µM (inactive); in [2] it was 21.2 µM (inactive); in [3], 7.4 µM (inactive); in test [4], 32.2 µM; in test [5], 24.9 µM (inactive); in test [6], 34 µM (inactive). Also, the GI50 in test [7] was 29 µM (inactive); in test [8], 20.6 µM (inactive); in test [9] it was 33 µM (inactive); in [10], 28 µM (inactive); in test [11], 24.6 µM (inactive); in [12], 22.2 µM (inactive). Besides, the GI50 in test [13] is 22.1 µM (inactive); in test [14], 47.6 µM (inactive); in test [15] it was 26.2 µM (inactive).
As to `N/C(=N\O)N/N=C/c1cccc(F)c1`, the GI50 was 30.4 µM (inactive) in test [1]; 36.3 µM (inactive) in [2]; 22.9 µM (inactive) in test [3]; 50.9 µM in test [4]; 25.5 µM (inactive) in [5]; 19.4 µM (inactive) in test [6]. For the same compound, the GI50 is 27 µM (inactive) in test [7]; 26.4 µM (inactive) in [8]; 85.9 µM (inactive) in [9]; 37.8 µM (inactive) in test [10]; 28.9 µM (inactive) in test [11]; 67.8 µM (inactive) in test [12]. Moreover, the GI50 in test [13] was 66.5 µM (inactive); in test [14], 28.3 µM (inactive); in test [15], 43.7 µM (inactive).
Take `CCOC(=O)C1=C(C)N(NC(=O)Nc2ccccc2)C2(N)N(NC(=O)Nc3ccccc3)C(C)=C(C(=O)OCC)C12C(=O)OCC` (stereo unspecified): the GI50 in test [1] is 45.3 µM (inactive); in test [2], 1.85 µM (inactive); in test [3], 25.5 µM (inactive); in [4] it was above 100 µM; in test [5], 35.2 µM (inactive); in test [6], > 100 µM (inactive). For the same compound, the GI50 was 57 µM (inactive) in [7]; 37.9 µM (inactive) in [8]; 29.5 µM (inactive) in [9]; 47.8 µM (inactive) in test [10]; 22.1 µM (inactive) in test [11]; 52.7 µM (inactive) in test [12]. Further, the GI50 in [13] was 80.4 µM (inactive); in test [14], 61.7 µM (inactive); in test [15] it was 12 µM (inactive).
Turning to `CCCn1c(SCC)c2ccccc2c1-c1nc(F)nc(F)n1`, the GI50 in [1] was > 100 µM (inactive); in [2], > 100 µM (inactive); in test [3] it was > 100 µM (inactive); in test [4] it was above 100 µM; in [5] it was > 100 µM (inactive); in test [6], > 100 µM (inactive). Further, the GI50 in test [7], in [8], in test [9], in test [10], in test [11] and in [12] was > 100 µM (inactive) in each case. In addition, the GI50 in test [13], in test [14] and in test [15] was > 100 µM (inactive) throughout.
In the case of `O=C1CC(c2c(-c3ccccc3)[nH]c3ccccc23)C(=O)N1c1ccccc1` (stereo unspecified), the GI50 is > 100 µM (inactive) in test [1]; 49.5 µM (inactive) in test [3]; 61.8 µM in test [4]; 44.6 µM (inactive) in [5]; 57.1 µM (inactive) in test [6]; 57.1 µM (inactive) in test [7]. Moreover, the GI50 is 56.2 µM (inactive) in test [8]; 68.9 µM (inactive) in test [9]; 13.5 µM (inactive) in [10]; > 100 µM (inactive) in test [11]; > 100 µM (inactive) in test [12]; > 100 µM (inactive) in test [13]. Also, the GI50 is 25.4 µM (inactive) in test [14] and > 100 µM (inactive) in [15].
With `O=C(O)C[C@H]1CCCCC12CCOC2=O` (stereo partly specified), the GI50 in test [1], in test [2], in test [3], in [5], in test [6] and in test [7] was > 100 µM (inactive) throughout. Further, the GI50 in test [8] was > 100 µM (inactive); in [9] it was > 100 µM (inactive); in test [10] it was > 100 µM (inactive); in [11], > 100 µM (inactive); in test [12], 87.5 µM (inactive); in test [13], > 100 µM (inactive). Besides, the GI50 in test [14] and in test [15] was > 100 µM (inactive) in each case.
As to `Cc1ccc(S(=O)(=O)OC(c2ccc(Cl)cc2Cl)C2OC(=O)c3ccccc32)cc1` (stereo unspecified), the GI50 was > 100 µM (inactive) in test [1]; 83.2 µM (inactive) in [2]; 45.8 µM (inactive) in test [3]; 56.5 µM in [4]; 21.4 µM (inactive) in [5]; 33.6 µM (inactive) in [6]. The GI50 was > 100 µM (inactive) in [7]; 35.8 µM (inactive) in [8]; 47.5 µM (inactive) in test [9]; 90.2 µM (inactive) in test [10]; 73.6 µM (inactive) in [11]; 73.6 µM (inactive) in [12]. Moreover, the GI50 in test [13] was > 100 µM (inactive); in test [14] it was 27.4 µM (inactive); in test [15], > 100 µM (inactive).
Consider `N#CCc1c(-c2ccccc2)n(S(=O)(=O)c2ccccc2)c2ccccc12`, for which the GI50 was > 100 µM (inactive) in test [1]; > 100 µM (inactive) in test [2]; 64.9 µM (inactive) in [3]; 82.8 µM in test [4]; > 100 µM (inactive) in test [5]; 46.9 µM (inactive) in [6]. Moreover, the GI50 is > 100 µM (inactive) in [7]; > 100 µM (inactive) in test [8]; 37.3 µM (inactive) in test [9]; 25.1 µM (inactive) in [10]; > 100 µM (inactive) in test [11]; > 100 µM (inactive) in test [12]. Also, the values for the GI50 in test [13], in [14] and in [15] were > 100 µM (inactive), 14.8 µM (inactive) and > 100 µM (inactive), respectively.
In the case of `CCCCCCCCCCCCCCCCc1c(O)nc(NN)nc1C(=O)OC`, the GI50 is > 50 µM (inactive) in test [1]; > 50 µM (inactive) in test [2]; > 50 µM (inactive) in [3]; above 50 µM in test [4]; > 50 µM (inactive) in test [5]; > 50 µM (inactive) in test [6]. The GI50 in test [7], in test [8], in test [9], in test [10], in test [11] and in test [12] was > 50 µM (inactive) throughout. Also, the GI50 in test [13], in test [14] and in test [15] was > 50 µM (inactive) throughout.
With `Cc1ccc(SSCCCCS(=O)O)cc1`, the GI50 in [1] is 32 µM (inactive); in [2], 19.5 µM (inactive); in test [3] it was 11.5 µM (inactive); in [4], 17.5 µM; in [5], 3.89 µM (inactive); in test [6], 24.3 µM (inactive). Also, the GI50 in test [7] was 12.9 µM (inactive); in test [8], 32.5 µM (inactive); in test [9], 15.8 µM (inactive); in [10], 26.4 µM (inactive); in test [11] it was 15 µM (inactive); in [12], 25.1 µM (inactive). For the same compound, the GI50 is 19.9 µM (inactive) in test [13], 10.6 µM (inactive) in test [14] and 14.8 µM (inactive) in test [15].
`COC1(OC)CC2OC1C1N=NN(C(=O)OC(C)(C)C)C21` (stereo unspecified): the GI50 in test [1] was > 100 µM (inactive); in test [2], > 100 µM (inactive); in [3] it was 67 µM (inactive); in test [4], 43.7 µM; in test [5], 24.3 µM (inactive); in test [6], 36 µM (inactive). The GI50 in test [7], in test [8], in test [9], in [10], in [11] and in [12] was > 100 µM (inactive) in each case. Also, the GI50 in test [14] and in test [15] was > 100 µM (inactive) in each case.
`NNC(=S)N/N=C/C(Cl)=C(\Cl)C(=O)O`: the GI50 in test [1] was > 100 µM (inactive); in [3], > 100 µM (inactive); in [4], above 100 µM; in [5] it was > 100 µM (inactive); in [6], > 100 µM (inactive); in test [7], > 100 µM (inactive). In addition, the GI50 in test [8], in test [9], in [10], in test [11], in test [12] and in [13] was > 100 µM (inactive) in each case. In addition, the GI50 in test [14] and in test [15] was > 100 µM (inactive) throughout.
As for `CN(C)CCC(=O)c1ccccc1`, the GI50 is 20 µM (inactive) in [1]; 28.9 µM (inactive) in test [2]; > 39.1 µM (inactive) in test [3]; 24.1 µM in test [4]; 11.3 µM (inactive) in test [5]; 27.6 µM (inactive) in test [6]. The GI50 in [7] was 26.3 µM (inactive); in test [8] it was > 58.5 µM (inactive); in test [9] it was 46.7 µM (inactive); in test [10], > 100 µM (inactive); in [11], > 58.1 µM (inactive); in test [12], > 62.8 µM (inactive). For the same compound, the GI50 in [13] was > 56.5 µM (inactive); in test [14] it was > 56.9 µM (inactive); in test [15], 19.4 µM (inactive).
Consider `Cc1[nH]c2ccccc2c1C1Cc2ccccc2N1C(=O)/C=C\C(=O)O` (stereo unspecified), for which the GI50 was 38.7 µM (inactive) in test [1]; 30.4 µM (inactive) in test [2]; 33.4 µM (inactive) in test [3]; above 100 µM in test [4]; 26.4 µM (inactive) in test [5]; 35.6 µM (inactive) in test [6]. For the same compound, the GI50 in test [7] is 21.6 µM (inactive); in test [8], > 100 µM (inactive); in test [9], > 100 µM (inactive); in test [10], 45.6 µM (inactive); in test [11], 28.4 µM (inactive); in test [12], 21.8 µM (inactive). Also, the GI50 is 45.8 µM (inactive) in [13], > 100 µM (inactive) in test [14] and 22.4 µM (inactive) in test [15].
